One data set relates to RIP3. Description: Western blot of RIP3 phosphorylation (band shift) in BMDMs. It is filed as cell-based, mouse. How it is done:
(§1) Western blot analysis. For western blot analysis of RIP3, cells were lysed in 1.25×sample buffer (83 mM Tris pH 6.8, 6.7% SDS, 13.3% Glycerol, 1.3% β-mercaptoethanol, 0.03% bromophenol blue) and boiled at 100° C. for 5 minutes prior to being subjected to SDS-PAGE and western blot analysis as previously described (Robinson et al., 2012). PVDF membranes were blocked with 5% skim milk, followed by incubation with RIP3 (ProSci Inc, 1:500) or HSP90 (Santa Cruz Biotechnology, 1:1000) antibodies. For analysis of MLKL protein, cells were lysed in ice-cold M2 lysis buffer (50 mM NaF, 20 mM Tris, pH 7.0, 0.5% NP40, 250 mM NaCl, 3 mM EDTA, 3 mM EGTA, supplemented with Roche protease and phosphatase inhibitor cocktails) for 30 mins before centrifugation to pellet insoluble component. Samples were mixed 3:1 with 4×sample loading buffer (Bio-Rad) prior to SDS PAGE and western blot analysis. PVDF membranes were blocked in 5% BSA and probed with MLKL (Millipore, 1:500) or GAPDH (Millipore, 1:1000) antibodies. Goat anti-mouse (1:2500) or anti-rabbit (1:5000) or anti-rat (1:2500) IRDye® secondary antibodies (Rockland) were utilized. The protein bands were visualized using Odyssey Infrared Imaging System (LI-COR Biotechnology).
Western blot analysis. […]

A further data set relates to MLKL. In words: Western blot of pMLKL in BMDMs. It is filed as cell-based, mouse. How it is done:
as §1, with “1.25× sample” for “1.25×sample”, “analysis.” for “analysis as previously described (Robinson et al., 2012).”, “4× sample” for “4×sample”, “(Bio-rad)” for “(Bio-Rad)”
(In general: A western blot detects proteins with antibodies after separation by electrophoresis.)

Data set [1] concerns bone-marrow-derived macrophages (BMDMs). It is filed as cell-based. How it is done: (§2) Bone-marrow derived macrophages. Bone-marrow derived macrophages (BMDMs) were isolated from femurs of adult VVT or Rip3^−/− mice and differentiated into macrophages using DMEM supplemented with 10% FBS and 1% penicillin-streptomycin plus either 20% L929 conditioned media or 20 ng/mL mouse M-CSF for 7-10 days. To polarize macrophages to M1 or M2, BMDMs were incubated on day 7 with 1 μg/mL LPS and 100 ng/mL IFNγ or 10 ng/mL IL-4 respectively for 24 h. Damage Associated Molecular Patterns (DAMPs) were obtained by subjecting BMDMs to 3×30 min freeze-thaw cycle or treatment with 100 ng/mL LPS and 50 μM zVAD.fmk for 24 hours, after which the media was collected and added to naïve cells at indicated ratios.
(§3) Cell viability assays. Cell death was determined by measuring lactate dehydrogenase (LDH) release into the media. Briefly, cells were treated with 100 μg/ml oxLDL in the presence or absence of 25 μM zVAD.fmk or 50 μM necrostatin-1 (Nec-1) for 24 hours and media was collected and centrifuged to pellet cell debris. The amount of LDH in media was measured in a kinetic assay by adding PBS containing 0.02% NADH and 0.03% sodium pyruvate and measuring absorbance at 340 nm for 10 minutes at 1 minute intervals. The slope of the curve provides a measure of cell death, which was expressed as fold change relative to control.
as §2, with “Rip3−/−” for “Rip3^−/−”
as §3, with “ug/ml” for “μg/ml”, “uM” for “μM”

SMILES strings stand for the structures.

Consider `CN1C(=O)C(Cc2c[nH]c3ccccc23)NC1=S` (stereo not shown) [Nec-1, necrostatin-1], for which the “RIP3 phosphorylation induced by oxLDL and DAMPs (in words)” value in the data set with RIP3 (BMDMs co-incubated with oxLDL and DAMPs, 8 hours) was “can be inhibited”. The “oxLDL-induced RIP3 phosphorylation (in words)” value with RIP3 (BMDMs, oxLDL±zVAD.fmk±Nec-1, 8 hours) was “dampened”. Also, the “oxLDL-induced MLKL phosphorylation (in words)” value with MLKL is on record as “dampened”. Also, the “cell death with compound alone (in words)” value in data set [1] is “did not promote cell death”. Further, the “cell death (LDH release), fold change relative to control” value in data set [1] (BMDMs, 100 μg/mL oxLDL + 50 μM Nec-1, 24 h, oxLDL alone 3.9±0.6-fold, mean±SEM) is 2.3±0.4 fold. In addition, the “inhibition of oxLDL+zVAD.fmk-induced cell death (in words)” value in data set [1] (BMDMs, oxLDL + zVAD.fmk + Nec-1, 24 h) was “similarly inhibited”. Moreover, the “inhibition of oxLDL-induced cell death (in words)” value in data set [1] (M2-polarized macrophages, oxLDL 24 h) is listed as “similarly inhibited”.

Source of the values: patent US20160324992A1, “IDENTIFICATION AND TREATMENT OF VULNERABLE PLAQUES” (OTTAWA HEART INSTITUTE RESEARCH CORPORATION, priority 2015, published 2016).
